# Assay results reported in US20190071416A1, “COMPOUNDS FOR TREATMENT OF CANCER AND EPIGENETICS” (Agency For Science, Technology and Research, priority 2015, published 2019).
# Target: T1, SMYD3 (Homo sapiens, UniProt Q9H7B4)
# T1 sequence (Q9H7B4 1-428): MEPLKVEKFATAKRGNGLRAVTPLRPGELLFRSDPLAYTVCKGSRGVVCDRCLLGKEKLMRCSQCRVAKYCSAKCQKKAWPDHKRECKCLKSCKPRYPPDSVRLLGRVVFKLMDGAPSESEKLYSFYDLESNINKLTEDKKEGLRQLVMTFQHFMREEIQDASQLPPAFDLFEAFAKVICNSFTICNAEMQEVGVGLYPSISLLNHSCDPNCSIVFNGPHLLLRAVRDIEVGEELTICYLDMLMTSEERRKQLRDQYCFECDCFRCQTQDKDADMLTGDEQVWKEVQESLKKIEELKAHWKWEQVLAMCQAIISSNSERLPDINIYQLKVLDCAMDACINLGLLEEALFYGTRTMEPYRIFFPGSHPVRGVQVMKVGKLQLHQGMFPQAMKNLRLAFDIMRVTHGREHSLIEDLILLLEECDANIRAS
# Assay: SMYD3 biochemical assay (MTase-Glo, MAP3K2 peptide substrate)
# Settings: not given
# Procedure, shortened: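 Methylation of MAP3K2 peptide (10 µM final) with SAM (1.0 µM final) by SMYD3, 30 min at room temperature. SAH formed was enzymatically converted to ATP and detected as luminescence with MTase-Glo reagents; IC50 by non-linear regression.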
row,Structure (SMILES),activity against SMYD3
1,"NC(=O)C1CCN(CC(=O)Nc2ccc(Br)cc2)CC1 [BCI-121, reference compound]",inactive

# Same assay, conditions: Table 3; MTase assay, MAP3K2 peptide substrate; read-out: IC50
row,Structure (SMILES),IC50
1,"CCCOC(=O)N1CCN(C(=O)c2ccc3c(Cl)c(F)c(-c4ccn(C)c4)nc3c2)CC1 [B262, Propyl 4-(4-chloro-3-fluoro-2-(1-methyl-1H-pyrrol-3-yl)quinoline-7-carbonyl)piperazine-1-carboxylate]",390 nM
2,"CCCOC(=O)N1CCN(C(=O)c2ccc3c(Cl)cc(C4(F)CC4)nc3c2)CC1 [B263, Propyl 4-(4-chloro-2-(1-fluorocyclopropyl)quinoline-7-carbonyl)piperazine-1-carboxylate]",13900 nM
3,"CCCOC(=O)N1CCN(C(=O)c2ccc3c(Cl)cc(-c4ccc(CN=[N+]=[N-])cc4)nc3c2)CC1 [B264, Propyl 4-(2-(4-(azidomethyl)phenyl)-4-chloroquinoline-7-carbonyl)piperazine-1-carboxylate]",84 nM
4,"CCCOC(=O)N1CCN(C(=O)c2ccc3c(Cl)cc(-c4ccc(C(C)(C)O)cc4)nc3c2)C[C@H]1C [B265, Propyl (R)-4-(4-chloro-2-(4-(2-hydroxypropan-2-yl)phenyl)quinoline-7-carbonyl)-2-methylpiperazine-1-carboxylate]",67 nM
5,"CC(C)(O)c1ccc(-c2cc(Cl)c3ccc(C(=O)N4CCN(C(=O)OCCF)CC4)cc3n2)cc1 [B266, 2-Fluoroethyl 4-(4-chloro-2-(4-(2-hydroxypropan-2-yl)phenyl)quinoline-7-carbonyl)piperazine-1-carboxylate]",3300 nM
6,"C[C@@H]1CN(C(=O)c2ccc3c(Cl)cc(-c4ccc(C(C)(C)O)cc4)nc3c2)CCN1C(=O)OCCF [B267, 2-Fluoroethyl (R)-4-(4-chloro-2-(4-(2-hydroxypropan-2-yl)phenyl)quinoline-7-carbonyl)-2-methylpiperazine-1-carboxylate]",150 nM
7,"CCCOC(=O)N1CCN(C(=O)c2ccc3c(Cl)cc(-c4ccn(C)c4)nc3c2)C[C@H]1C [B268, Propyl (R)-4-(4-chloro-2-(1-methyl-1H-pyrrol-3-yl)quinoline-7-carbonyl)-2-methylpiperazine-1-carboxylate]",17 nM
8,"CCCOC(=O)N1CCN(C(=O)c2ccc3c(Cl)cc(-c4ccc(C(C)(C)O)c(F)c4)nc3c2)C[C@H]1C [B269, Propyl (R)-4-(4-chloro-2-(3-fluoro-4-(2-hydroxypropan-2-yl)phenyl)quinoline-7-carbonyl)-2-methylpiperazine-1-carboxylate]",170 nM
9,"CCCOC(=O)N1CCN(C(=O)c2ccc3c(Cl)cc(-c4ccc(C(C)(C)O)cc4)nc3c2)C[C@@H]1C [B270, Propyl (S)-4-(4-chloro-2-(4-(2-hydroxypropan-2-yl)phenyl)quinoline-7-carbonyl)-2-methylpiperazine-1-carboxylate]",16 nM
10,"CCCOC(=O)N1CCN(C(=O)c2ccc3c(Cl)cc(-c4cnn(C5COC5)c4)nc3c2)CC1 [B271, Propyl 4-(4-chloro-2-(1-(oxetan-3-yl)-1H-pyrazol-4-yl)quinoline-7-carbonyl)piperazine-1-carboxylate]",34 nM
11,"CCCOC(=O)N1CCN(C(=O)c2ccc3c(Cl)cc(-c4cnn(C5COC5)c4)nc3c2)C[C@H]1C [B272, Propyl (R)-4-(4-chloro-2-(1-(oxetan-3-yl)-1H-pyrazol-4-yl)quinoline-7-carbonyl)-2-methylpiperazine-1-carboxylate]",16 nM
12,"CCCOC(=O)N1CCN(C(=O)c2ccc3c(Cl)cc(-c4cnn(C5COC5)c4)nc3c2)C[C@@H]1C [B273, Propyl (S)-4-(4-chloro-2-(1-(oxetan-3-yl)-1H-pyrazol-4-yl)quinoline-7-carbonyl)-2-methylpiperazine-1-carboxylate]",19 nM
13,"CCCOC(=O)N1CCN(C(=O)c2ccc3c(Cl)cc(-c4cnn(CC(F)(F)F)c4)nc3c2)CC1 [B274, Propyl 4-(4-chloro-2-(1-(2,2,2-trifluoroethyl)-1H-pyrazol-4-yl)quinoline-7-carbonyl)piperazine-1-carboxylate]",210 nM
14,"CCCOC(=O)N1CCN(C(=O)c2ccc3c(Cl)cc(-c4cnn(CC(F)(F)F)c4)nc3c2)C[C@H]1C [B275, Propyl (R)-4-(4-chloro-2-(1-(2,2,2-trifluoroethyl)-1H-pyrazol-4-yl)quinoline-7-carbonyl)-2-methylpiperazine-1-carboxylate]",34 nM
15,"CCCOC(=O)N1CCN(C(=O)c2ccc3c(Cl)cc(-c4cnn(CC(F)(F)F)c4)nc3c2)C[C@@H]1C [B276, Propyl (S)-4-(4-chloro-2-(1-(2,2,2-trifluoroethyl)-1H-pyrazol-4-yl)quinoline-7-carbonyl)-2-methylpiperazine-1-carboxylate]",22 nM
16,"CCCOC(=O)N1CCN(C(=O)c2ccc3c(Cl)cc(-c4cnn(C5CCCC5)c4)nc3c2)CC1 [B277, Propyl 4-(4-chloro-2-(1-cyclopentyl-1H-pyrazol-4-yl)quinoline-7-carbonyl)piperazine-1-carboxylate]",60 nM

row,Structure (SMILES),IC50
1,"CCCOC(=O)N1CCN(C(=O)c2ccc3c(Cl)cc(-c4cnn(C5CCCC5)c4)nc3c2)C[C@H]1C [B278, Propyl (R)-4-(4-chloro-2-(1-cyclopentyl-1H-pyrazol-4-yl)quinoline-7-carbonyl)-2-methylpiperazine-1-carboxylate]",22 nM
2,"CCCOC(=O)N1CCN(C(=O)c2ccc3c(Cl)cc(-c4cnn(C5CCCC5)c4)nc3c2)C[C@@H]1C [B279, Propyl (S)-4-(4-chloro-2-(1-cyclopentyl-1H-pyrazol-4-yl)quinoline-7-carbonyl)-2-methylpiperazine-1-carboxylate]",20 nM
3,"CCCOC(=O)N1CCN(C(=O)c2ccc3c(Cl)cc(-c4ccc(OC)c(CN)c4)nc3c2)C[C@@H]1C [B280, Propyl (S)-4-(2-(3-(aminomethyl)-4-methoxyphenyl)-4-chloroquinoline-7-carbonyl)-2-methylpiperazine-1-carboxylate]",67 nM
4,"CCCOC(=O)N1CCN(C(=O)c2ccc3c(Cl)cc(-c4ccc(C5(N)CC5)cc4)nc3c2)C[C@H]1C [B281, Propyl (R)-4-(2-(4-(1-aminocyclopropyl)phenyl)-4-chloroquinoline-7-carbonyl)-2-methylpiperazine-1-carboxylate]",12 nM
5,"CCCOC(=O)N1CCN(C(=O)c2ccc3c(Cl)cc(-c4ccc(C(C)(C)CN)cc4)nc3c2)C[C@H]1C [B282, Propyl (R)-4-(2-(4-(1-amino-2-methylpropan-2-yl)phenyl)-4-chloroquinoline-7-carbonyl)-2-methylpiperazine-1-carboxylate]",13 nM
6,"CCCOC(=O)N1CCN(C(=O)c2ccc3c(Cl)cc(-c4ccc(C(C)N5CCCC5)cc4)nc3c2)C[C@H]1C (stereo partly drawn) [B283, Propyl (2R)-4-(4-chloro-2-(4-(1-(pyrrolidin-1-yl)ethyl)phenyl)quinoline-7-carbonyl)-2-methylpiperazine-1-carboxylate]",280 nM
7,"CCCOC(=O)N1CCN(C(=O)c2ccc3c(Cl)cc(-c4ccc(C(C)N(C)C)cc4)nc3c2)C[C@H]1C (stereo partly drawn) [B284, Propyl (2R)-4-(4-chloro-2-(4-(1-(dimethylamino)ethyl)phenyl)quinoline-7-carbonyl)-2-methylpiperazine-1-carboxylate]",24 nM
8,"CCCOC(=O)N1CCN(C(=O)c2ccc3c(Cl)cc(-c4ccc(C(C)(C)CN)cc4)nc3c2)CC1 [B285, Propyl 4-(2-(4-(1-amino-2-methylpropan-2-yl)phenyl)-4-chloroquinoline-7-carbonyl)piperazine-1-carboxylate]",13 nM
9,"CCCOC(=O)N1CCN(C(=O)c2ccc3c(Cl)cc(-c4ccc(C(C)(C)CNC)cc4)nc3c2)CC1 [B286, Propyl 4-(4-chloro-2-(4-(2-methyl-1-(methylamino)propan-2-yl)phenyl)quinoline-7-carbonyl)piperazine-1-carboxylate]",25 nM
10,"CCCOC(=O)N1CCN(C(=O)c2ccc3c(Cl)cc(-c4ccc(C(C)(C)CN(C)C)cc4)nc3c2)CC1 [B287, Propyl 4-(4-chloro-2-(4-(1-(dimethylamino)-2-methylpropan-2-yl)phenyl)quinoline-7-carbonyl)piperazine-1-carboxylate]",130 nM
11,"C=CCOC(=O)N1CCN(C(=O)c2ccc3c(Cl)c4c(nc3c2)CCC4)CC1 [C002, Allyl 4-(9-chloro-2,3-dihydro-1H-cyclopenta[b]quinoline-6-carbonyl)piperazine-1-carboxylate]",10000 nM
12,"CCCOC(=O)N1CCN(C(=O)c2ccc3c(Cl)c(C)c(C)nc3c2)CC1 [C003, Propyl 4-(4-chloro-2,3-dimethylquinoline-7-carbonyl)piperazine-1-carboxylate]",3000 nM
13,"CCCOC(=O)N1CCN(C(=O)c2ccc3c(Cl)cc(CC)nc3c2)CC1 [C004, Propyl 4-(4-chloro-2-ethylquinoline-7-carbonyl)piperazine-1-carboxylate]",1400 nM
14,"CCCOC(=O)N1CCN(C(=O)c2ccc3c(Cl)c(C#N)c(C)nc3c2)CC1 [C006, Propyl 4-(4-chloro-3-cyano-2-methylquinoline-7-carbonyl)piperazine-1-carboxylate]",2800 nM
15,"CCCOC(=O)N1C2CCCC1CN(C(=O)c1ccc3c(Cl)ccnc3c1)C2 [C007, Propyl 3-(4-chloroquinoline-7-carbonyl)-3,9-diazabicyclo[3.3.1]nonane-9-carboxylate]",550 nM
16,"CCCOC(=O)N1CCN(C(=O)c2ccc3c(Cl)c4c(nc3c2)CCNC4)CC1 [C008, Propyl 4-(10-chloro-1,2,3,4-tetrahydrobenzo[b][1,6]naphthyridine-7-carbonyl)piperazine-1-carboxylate]",4600 nM
